Experimental data reported in US20070249670A1, “Glycogen Phosphorylase Inhibitor Compounds and Pharmaceutical Compositions Thereof” (SMITHKLINE BEECHAM CORPORATION, priority 2004, published 2007).
Structures can show the parent of a compound that is named as a salt.

Target: T1, human liver glycogen phosphorylase a (HLGPa) (Homo sapiens, UniProt P06737)
T1 construct: creating a full-length cDNA fused at the 5′ end to codons for methionine-glycine-alanine-histidine; 6xHis tag (leader Met-Gly-Ala-His6-Gly-Gly) (N); made in house; host or cells: E. coli (bacterial expression plasmid pTXK1007LTev)
T1 sequence (P06737 2-847 limits assumed): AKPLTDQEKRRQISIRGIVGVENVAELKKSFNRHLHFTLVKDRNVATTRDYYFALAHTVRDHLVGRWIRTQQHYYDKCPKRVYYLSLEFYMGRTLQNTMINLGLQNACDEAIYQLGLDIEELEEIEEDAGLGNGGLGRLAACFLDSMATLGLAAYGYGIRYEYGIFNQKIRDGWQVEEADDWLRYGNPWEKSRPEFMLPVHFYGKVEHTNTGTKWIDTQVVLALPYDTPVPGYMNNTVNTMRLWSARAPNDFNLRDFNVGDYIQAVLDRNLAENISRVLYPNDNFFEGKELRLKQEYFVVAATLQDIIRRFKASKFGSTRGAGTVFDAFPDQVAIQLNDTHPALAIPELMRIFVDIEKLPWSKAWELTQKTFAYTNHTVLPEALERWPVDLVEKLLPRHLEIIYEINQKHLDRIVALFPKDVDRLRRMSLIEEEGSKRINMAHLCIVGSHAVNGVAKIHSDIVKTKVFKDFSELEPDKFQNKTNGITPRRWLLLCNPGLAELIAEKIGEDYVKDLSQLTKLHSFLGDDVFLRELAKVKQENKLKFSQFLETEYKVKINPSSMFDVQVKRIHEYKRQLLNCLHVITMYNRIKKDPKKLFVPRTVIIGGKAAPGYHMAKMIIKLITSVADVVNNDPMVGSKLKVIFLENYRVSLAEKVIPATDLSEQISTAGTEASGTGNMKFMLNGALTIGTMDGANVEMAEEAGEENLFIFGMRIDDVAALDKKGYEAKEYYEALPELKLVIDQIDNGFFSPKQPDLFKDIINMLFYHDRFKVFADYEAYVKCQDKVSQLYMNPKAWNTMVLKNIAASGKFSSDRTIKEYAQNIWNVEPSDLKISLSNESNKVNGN
Test: Human liver glycogen phosphorylase a enzymatic activity assay (coupled, fluorescent resorufin readout, with and without 10 mM glucose)
Type: biochemical
Settings: human liver glycogen phosphorylase a; table does not say whether with or without 10 mM glucose

Row | Structure (SMILES) | IC50
1 | Cc1cc(C)c(NC(=O)Nc2cc3ccccc3cc2C(=O)N2CCN(C(=O)OC(C)(C)C)C[C@H]2C(=O)O)c(C)c1 [Example 254, (2S)-4-{[(1,1-dimethylethyl)oxy]carbonyl}-1-{[3-({[(2,4,6-trimethylphenyl)amino]carbonyl}amino)-2-naphthalenyl]carbonyl}-2-piperazinecarboxylic acid] | 810 nM
2 | O=C(Nc1cc2ccccc2cc1C(=O)N[C@H](C(=O)O)C1CCCCC1)c1ccc(-c2ccc(Cl)cc2Cl)o1 [Example 255, (2S)-cyclohexyl({[3-({[5-(2,4-dichlorophenyl)-2-furanyl]carbonyl}amino)-2-naphthalenyl]carbonyl}amino)ethanoic acid] | 2600 nM
3 | Cc1cc(C)c(NC(=O)Nc2cc3ccccc3cc2C(=O)N2CCN(S(C)(=O)=O)C[C@H]2C(=O)O)c(C)c1 [Example 256, (2S)-4-(methylsulfonyl)-1-{[3-({[(2,4,6-trimethylphenyl)amino]carbonyl}amino)-2-naphthalenyl]carbonyl}-2-piperazinecarboxylic acid] | 17400 nM
4 | Cc1cc(C)c(NC(=O)Nc2cc3ccccc3cc2C(=O)N2CCCC[C@H]2C(=O)O)c(C)c1 [Example 257, (2S)-1-{[3-({[(2,4,6-trimethylphenyl)amino]carbonyl}amino)-2-naphthalenyl]carbonyl}-2-piperidinecarboxylic acid] | 18400 nM
5 | Cc1cc(C)c(NC(=O)Nc2cc3ccccc3cc2C(=O)O)c(C)c1 [Example 263, 3-({[(2,4,6-trimethylphenyl)amino]carbonyl}amino)-2-naphthalenecarboxylic acid] | 3460 nM
6 | Cc1cc(C)c(NC(=O)Nc2cc3ccccc3cc2C(=O)NC(CCC(C)CC(C)(C)C)C(=O)O)c(C)c1 (centres unmarked) [Example 264, 5,7,7-trimethyl-2-({[3-({[(2,4,6-trimethylphenyl)amino]carbonyl}amino)-2-naphthalenyl]carbonyl}amino)octanoic acid] | 120 nM
7 | Cc1cc(C)c(CC(=O)Nc2cc3ccccc3cc2C(=O)N[C@H](C(=O)O)[C@@H](C)OC(C)(C)C)c(C)c1 [Example 268, O-(1,1-dimethylethyl)-N-[(3-{[(2,4,6-trimethylphenyl)acetyl]amino}-2-naphthalenyl)carbonyl]-L-threonine] | 50 nM
8 | Cc1cc(C)c(NC(=O)Nc2cc3ccccc3cc2C(=O)N[C@@](C)(CC(C)C)C(=O)O)c(C)c1 [Example 269, 2-methyl-N-{[3-({[(2,4,6-trimethylphenyl)amino]carbonyl}amino)-2-naphthalenyl]carbonyl}leucine] | 210 nM
9 | Cc1cc(C)c(-c2ccc(C(=O)Nc3cc4ccccc4cc3C(=O)N[C@H](C(=O)O)C3CCCCC3)o2)c(C)c1 [Example 270, (2S)-cyclohexyl({[3-({[5-(2,4,6-trimethylphenyl)-2-furanyl]carbonyl}amino)-2-naphthalenyl]carbonyl}amino)ethanoic acid] | 10300 nM
10 | COCCOC[C@H](NC(=O)c1cc2ccccc2cc1NC(=O)Nc1c(C)cc(C)cc1C)C(=O)O [Example 272, O-[2-(methyloxy)ethyl]-N-{[3-({[(2,4,6-trimethylphenyl)amino]carbonyl}amino)-2-naphthalenyl]carbonyl}-L-serine] | 38 nM
11 | Cc1cc(C)c(NC(=O)Nc2cc3ccccc3cc2C(=O)N[C@@H](COC2CCOCC2)C(=O)O)c(C)c1 [Example 276, O-(tetrahydro-2H-pyran-4-yl)-N-{[3-({[(2,4,6-trimethylphenyl)amino]carbonyl}amino)-2-naphthalenyl]carbonyl}-L-serine] | 45 nM
12 | O=C(Nc1cc2ccccc2cc1C(=O)NC1(C(=O)O)CCCC1)Nc1c(Cl)cc(Cl)cc1Cl [Example 279, 1-({[3-({[(2,4,6-Trichlorophenyl)amino]carbonyl}amino)-2-naphthalenyl]carbonyl}amino)cyclopentanecarboxylic acid] | 3000 nM
13 | O=C(Nc1cc2ccccc2cc1C(=O)NC1(C(=O)O)CCCCC1)Nc1c(Cl)cc(Cl)cc1Cl [Example 281, 1-({[3-({[(2,4,6-trichlorophenyl)amino]carbonyl}amino)-2-naphthalenyl]carbonyl}amino)cyclohexanecarboxylic acid] | 1620 nM
14 | Cc1cc(C)c(NC(=O)Nc2cc3ccccc3cc2C(=O)NC2(C(=O)O)CCOCC2)c(C)c1 [Example 282, 4-({[3-({[(2,4,6-Trimethylphenyl)amino]carbonyl}amino)-2-naphthalenyl]carbonyl}amino)tetrahydro-2H-pyran-4-carboxylic acid] | 1150 nM
15 | O=C(Nc1cc2ccccc2cc1C(=O)NC1(C(=O)O)CCOCC1)Nc1c(Cl)cccc1Cl [Example 283, 4-({[3-({[(2,6-Dichlorophenyl)amino]carbonyl}amino)-2-naphthalenyl]carbonyl}amino)tetrahydro-2H-pyran-4-carboxylic acid] | 7180 nM
16 | O=C(Nc1cc2ccccc2cc1C(=O)NC1(C(=O)O)CCSCC1)Nc1c(Cl)cc(Cl)cc1Cl [Example 284, 4-({[3-({[(2,4,6-Trichlorophenyl)amino]carbonyl}amino)-2-naphthalenyl]carbonyl}amino)tetrahydro-2H-thiopyran-4-carboxylic acid] | 2310 nM
17 | Cc1cc(C)c(NC(=O)Nc2cc3ccccc3cc2C(=O)NC2(C(=O)O)CCS(=O)(=O)CC2)c(C)c1 [Example 285, 4-({[3-({[(2,4,6-Trimethylphenyl)amino]carbonyl}amino)-2-naphthalenyl]carbonyl}amino)tetrahydro-2H-thiopyran-4-carboxylic acid 1,1-dioxide] | 3310 nM
18 | O=C(Nc1cc2ccccc2cc1C(=O)NC1(C(=O)O)CCN(Cc2ccccc2)CC1)Nc1c(Cl)cccc1Cl [Example 286, 4-({[3-({[(2,6-Dichlorophenyl)amino]carbonyl}amino)-2-naphthalenyl]carbonyl}amino)-1-(phenylmethyl)-4-piperidinecarboxylic acid] | 1380 nM
19 | Cc1cc(C)c(NC(=O)Nc2cc3ccccc3cc2C(=O)NC2(C(=O)O)CCN(C(=O)OC(C)(C)C)CC2)c(C)c1 [Example 287, 1-{[(1,1-Dimethylethyl)oxy]carbonyl}-4-({[3-({[(2,4,6-trimethylphenyl)amino]carbonyl}amino)-2-naphthalenyl]carbonyl}amino)-4-piperidinecarboxylic acid] | 430 nM
20 | Cc1cc(C)c(NC(=O)Nc2cc3ccccc3cc2C(=O)NC2(C(=O)O)CCNCC2)c(C)c1 [Example 288, 4-({[3-({[(2,4,6-trimethylphenyl)amino]carbonyl}amino)-2-naphthalenyl]carbonyl}amino)-4-piperidinecarboxylic acid trifluoroacetate] | 6170 nM
21 | CCCCN1CCC(NC(=O)c2cc3ccccc3cc2NC(=O)Nc2c(C)cc(C)cc2C)(C(=O)O)CC1 [Example 289, 1-Butyl-4-({[3-({[(2,4,6-trimethylphenyl)amino]carbonyl}amino)-2-naphthalenyl]carbonyl}amino)-4-piperidinecarboxylic acid] | 4390 nM
22 | CCCC(=O)N1CCC(NC(=O)c2cc3ccccc3cc2NC(=O)Nc2c(C)cc(C)cc2C)(C(=O)O)CC1 [Example 290, 1-Butanoyl-4-({[3-({[(2,4,6-trimethylphenyl)amino]carbonyl}amino)-2-naphthalenyl]carbonyl}amino)-4-piperidinecarboxylic acid] | 1240 nM
23 | O=C1CCC(NC(=O)c2cc3ccccc3cc2NC(=O)Nc2c(Cl)cccc2Cl)(C(=O)O)CC1 [Example 292, 1-({[3-({[(2,6-dichlorophenyl)amino]carbonyl}amino)-2-naphthalenyl]carbonyl}amino)-4-oxocyclohexanecarboxylic acid] | 6590 nM
24 | Cc1cc(C)c(NC(=O)Nc2cc3ccccc3cc2C(=O)NC2(C(=O)O)CCC(NCc3ccccc3)CC2)c(C)c1 (centres unmarked) [Example 294, 4-[(phenylmethyl)amino]-1-({[3-({[(2,4,6-trimethylphenyl)amino]carbonyl}amino)-2-naphthalenyl]carbonyl}amino)cyclohexanecarboxylic acid] | 2530 nM
25 | Cc1cc(C)c(NC(=O)Nc2cc3ccccc3cc2C(=O)NC2(C(=O)O)CCC(NCc3ccccc3)CC2)c(C)c1 (centres unmarked) [Example 295, 4-[(phenylmethyl)amino]-1-({[3-({[(2,4,6-trimethylphenyl)amino]carbonyl}amino)-2-naphthalenyl]carbonyl}amino)cyclohexanecarboxylic acid] | 5560 nM
26 | Cc1cc(C)c(NC(=O)Nc2cc3ccccc3cc2C(=O)NC2(C(=O)O)CCC(=NO)CC2)c(C)c1 (centres unmarked) [Example 296, 4-(hydroxyimino)-1-({[3-({[(2,4,6-trimethylphenyl)amino]carbonyl}amino)-2-naphthalenyl]carbonyl}amino)cyclohexanecarboxylic acid] | 540 nM
